Where two headings read alike, the source gives them in different places.
Legend:
[1] = molecular target: T1, epsin 1 ENTH domain, wild type, SEQ ID NO: 1 (Homo sapiens, UniProt Q9Y6I3); experiment: SPR equilibrium binding of epsin1 ENTH domain (wild type) to phosphoinositide-containing LUVs; conditions: SPR
T1 construct: The Epsin1 ENTH domain (1-158 amino acids) was subcloned; GST (C, cleaved yes); made in house; host or cells: E. coli BL21 RIL codon plus
T1 sequence (Q9Y6I3 1-158): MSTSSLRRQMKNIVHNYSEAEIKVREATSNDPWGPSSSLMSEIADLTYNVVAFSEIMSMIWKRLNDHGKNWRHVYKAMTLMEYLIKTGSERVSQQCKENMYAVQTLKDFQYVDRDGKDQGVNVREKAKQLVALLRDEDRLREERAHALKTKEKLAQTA
Text: (§1) The ENTH domain was engineered to introduce a single labeling site (M10C) on the membrane binding surface while removing an endogenous Cys (C96A). We also performed the S4W mutation to suppress its residual affinity for another lipid, phosphatidylinositol-3,4,5-trisphosphate (PtdIns(3,4,5)P3) (PtdIns(4,5)P2/PtdIns(3,4,5)P3=4 for wild type and >10 for the mutant) and to enhance the overall affinity for PtdIns(4,5)P2-containing membranes (ca. 4-fold) (Table 1).
(§2) With respect to FIG. 1, an L1 sensor chip was coated with POPC/POPS/PtdIns(4,5)P2 (77:20:3) LUVs. The proteins were incubated with a given concentration of IP3 for 5 minutes before injecting into the SPR instrument. Kinetic SPR measurements were performed in 20 mM Tris-HCL, pH 7.4, containing 0.16 KCl. […] A lower concentration of DAN-eENTH was used than that of PLCδ PH because the former has much higher affinity that the latter.
The Epsin1 ENTH domain (1-158 amino acids) was subcloned into the pGEX4T-1 vector and expressed as a […] glutathione S-transferase (GST)-tagged protein. The ENTH domain amino acid sequence is as follows:
E. coli BL21 RIL codon plus (Stratagene) cells were used for protein expression. Cells were grown in Luria broth media containing 100 μg/ml of ampicillin at 37° C. 0.1 mM of Isopropyl β-D-1-thiogalactopyranoside was added to induce over-expression of recombinant proteins when the OD600 reached 0.5-0.8 and cells were grown for additional 6 to 10 hours at 25° C. Cells were harvested by centrifugation and cell pellets were resuspended in 50 mM Tris-HCl buffer (pH 7.4) containing 160 mM KCl, 1 mM phenylmethanesulphonylfluoride, and 5 mM of dithiothreitol (DTT). Cells were lysed by sonication and the lysate was collected by centrifugation at 4° C. The GST-affinity resin (GenScript) for GST-tagged proteins or nickel-nitrilotriacetic acid resin (Qiagen, Valencia, Calif.) for His6-tagged proteins was added into the cell lysate and the mixture was gently shaken for 30 minutes at 4° C. The mixture was applied to a column and the column was washed once with 50 mM Tris-HCl buffer (pH 7.4) containing 160 mM KCl and 5 mM of DTT to reduce thiol group, and washed several times with the same buffer without DTT to remove DTT. For DAN labeling, 100 μg of acrylodan was added to the column at this stage and incubated 16 hours at 4° C. The excess acrylodan was removed by washing the column with the buffer several times. […] Purity and the concentration of the recombinant proteins were determined by sodium dodecylsulfate-polyacrylamide gel electrophoresis and bicinchoninic acid assay, respectively. The DAN labeling yield of eENTH, which was calculated as the molar ratio of DAN (determined spectrophotometrically at 391 nm using its extinction coefficient of 20,000 cm^−1 M^−1) to protein, was typically 60-70%. […]

[2] = molecular target: T2, epsin 1 ENTH domain (SEQ ID NO: 1) variant C96A (Homo sapiens, UniProt Q9Y6I3, C96A); experiment: SPR equilibrium binding of epsin1 ENTH C96A to phosphoinositide-containing LUVs
T2 construct: The Epsin1 ENTH domain (1-158 amino acids) was subcloned; GST (C, cleaved yes); made in house; host or cells: E. coli BL21 RIL codon plus
T2 sequence (Q9Y6I3 1-158 C96A): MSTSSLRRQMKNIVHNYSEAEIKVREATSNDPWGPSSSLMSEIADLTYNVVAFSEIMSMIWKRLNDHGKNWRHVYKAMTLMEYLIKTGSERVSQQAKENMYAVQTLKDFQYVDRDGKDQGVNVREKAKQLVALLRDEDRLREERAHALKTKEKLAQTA
Text: as §1, §2
(§3) All mutations (S4W, M10C, and C96A) were performed by polymerase chain reaction mutagenesis and verified by DNA sequencing. eENTH may comprise the following sequence:
E. coli BL21 RIL codon plus (Stratagene) cells were used for protein expression. Cells were grown in Luria broth media containing 100 μg/ml of ampicillin at 37° C. 0.1 mM of Isopropyl β-D-1-thiogalactopyranoside was added to induce over-expression of recombinant proteins when the OD600 reached 0.5-0.8 and cells were grown for additional 6 to 10 hours at 25° C. Cells were harvested by centrifugation and cell pellets were resuspended in 50 mM Tris-HCl buffer (pH 7.4) containing 160 mM KCl, 1 mM phenylmethanesulphonylfluoride, and 5 mM of dithiothreitol (DTT). Cells were lysed by sonication and the lysate was collected by centrifugation at 4° C. […] Purity and the concentration of the recombinant proteins were determined by sodium dodecylsulfate-polyacrylamide gel electrophoresis and bicinchoninic acid assay, respectively. The DAN labeling yield of eENTH, which was calculated as the molar ratio of DAN (determined spectrophotometrically at 391 nm using its extinction coefficient of 20,000 cm^−1 M^−1) to protein, was typically 60-70%. […]

[3] = molecular target: T3, PLCδ-PH (PLCδ PH domain) (Homo sapiens, UniProt P51178); experiment: SPR equilibrium binding of PLCδ-PH to phosphoinositide-containing LUVs
T3 sequence (P51178 21-130 limits assumed): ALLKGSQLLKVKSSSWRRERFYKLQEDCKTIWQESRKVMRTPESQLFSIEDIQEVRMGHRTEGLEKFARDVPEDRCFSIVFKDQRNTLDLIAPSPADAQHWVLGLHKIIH
Experimental: as §2, with “1, an L1 sensor chip was coated with POPC/POPS/PtdIns(4,5)P2 (77:20:3) LUVs.” left out
LUVs were prepared by extrusion using a 100 nm-pore membrane. GUVs were prepared by electroformation. The lipid mixture were prepared in chloroform/methanol (3:1) at a total concentration of 0.4 mg/ml, then the lipid solution was spread onto the indium-tin oxide electrode surface and the lipid was dried under vacuum to form a uniform lipid film. Vesicles were grown in a sucrose solution (350 mM) while an electric field (3V, 20 Hz frequency) was applied for 5 hour at room temperature. After 1 to […] of sucrose-loaded GUV solution was added into a well glued onto a coverslip that was placed on the microscope stage. The well contained […] of 20 mM Tris-HCl buffer, pH 7.4, with 0.16 M KCl solution. The diameter of GUVs ranged from 5 to 30 μm.

[4] = molecular target: T4, DAN-eENTH: epsin 1 ENTH domain variant M10C/C96A/S4W, SEQ ID NO: 2, labeled with DAN at C10 (Homo sapiens, UniProt Q9Y6I3, C96A/M10C/S4W); experiment: SPR equilibrium binding of DAN-eENTH to phosphoinositide-containing LUVs; conditions: SPR
T4 construct: The Epsin1 ENTH domain (1-158 amino acids) was subcloned; GST (C, cleaved yes); made in house; host or cells: E. coli BL21 RIL codon plus
T4 sequence (Q9Y6I3 1-158 S4W/M10C/C96A): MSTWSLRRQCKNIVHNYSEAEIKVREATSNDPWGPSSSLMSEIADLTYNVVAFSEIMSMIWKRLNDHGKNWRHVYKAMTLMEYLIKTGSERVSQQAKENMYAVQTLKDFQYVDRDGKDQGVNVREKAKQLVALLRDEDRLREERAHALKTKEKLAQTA
Text: Provided herein is an ENTH domain of epsin1, which is linked to 2-dimethylamino-6-acyl-naphthalene (DAN). The ENTH domain contains 3 mutations, which are substitutions: M10C, C96A, and S4W. See SEQ ID NO:2. This DAN-eENTH (M10C, C96A, S4W) is an exceptional, high-affinity phosphatidylinositol-4,5-bisphosphate (PtdIns(4,5)P2)-binding protein.
as §1, §2, §3
E. coli BL21 RIL codon plus (Stratagene) cells were used for protein expression. Cells were grown in Luria broth media containing 100 μg/ml of ampicillin at 37° C. 0.1 mM of Isopropyl β-D-1-thiogalactopyranoside was added to induce over-expression of recombinant proteins when the OD600 reached 0.5-0.8 and cells were grown for additional 6 to 10 hours at 25° C. Cells were harvested by centrifugation and cell pellets were resuspended in 50 mM Tris-HCl buffer (pH 7.4) containing 160 mM KCl, 1 mM phenylmethanesulphonylfluoride, and 5 mM of dithiothreitol (DTT). Cells were lysed by sonication and the lysate was collected by centrifugation at 4° C. The GST-affinity resin (GenScript) for GST-tagged proteins or nickel-nitrilotriacetic acid resin (Qiagen, Valencia, Calif.) for His6-tagged proteins was added into the cell lysate and the mixture was gently shaken for 30 minutes at 4° C. The mixture was applied to a column and the column was washed once with 50 mM Tris-HCl buffer (pH 7.4) containing 160 mM KCl and 5 mM of DTT to reduce thiol group, and washed several times with the same buffer without DTT to remove DTT. For DAN labeling, 100 μg of acrylodan was added to the column at this stage and incubated 16 hours at 4° C. The excess acrylodan was removed by washing the column with the buffer several times. Thrombin (Invitrogen) was added to column to remove the GST tag and the mixture was incubated at 4° C. for 10 hours. The labeled protein was eluted from the column by and the collected fractions were applied to ion exchange column. Purity and the concentration of the recombinant proteins were determined by sodium dodecylsulfate-polyacrylamide gel electrophoresis and bicinchoninic acid assay, respectively. The DAN labeling yield of eENTH, which was calculated as the molar ratio of DAN (determined spectrophotometrically at 391 nm using its extinction coefficient of 20,000 cm^−1 M^−1) to protein, was typically 60-70%.
LUVs were prepared by extrusion using a 100 nm-pore membrane. GUVs were prepared by electroformation. […]

[5] = test system: NIH 3T3 cells; experiment: Change of plasma membrane [PtdIns(4,5)P2]s on stimulation, quantified with DAN-eENTH; type: cell-based; conditions: 1 μM insulin
Experimental: (§4) DAN-eENTH was delivered into NIH 3T3 cells by microinjection for live cell imaging and determined cellular [PtdIns(4,5)P2] by the ratiometric analysis. The green channel (FIG. 10a) representing both PtdIns(4,5)P2-bound and free DAN-eENTH illustrates that the sensor is successfully loaded into cells and randomly distributed in the cytosol, the nucleus, and the plasma membrane. […] When [PtdIns(4,5)P2]s in the PM was determined in a time-dependent manner by either single-channel 9FB) or ratiometric (FB/FG) analysis using the calibration curve (FIG. 2c or 2d), dramatic local heterogeneity of [PtdIns(4,5)P2]s was clearly visible at a given time ((FIG. 9c). […] In FIG. 7, the different angles represent different locations in the plasma membrane. […] That is, PtdIns(4,5)P2 can be locally enriched, but only transiently, in the quiescent cells. […] Also, the change in [PtdIns(4,5)P2]s was monitored in response to physiological stimuli, ATP and insulin. […]
(§5) NIH 3T3 cells were seeded into 8-well plates and grown at 37° C. in a humidified atmosphere of 95% air and 5% CO2 in Dulbecco's modified Eagle's medium (DMEM) (Invitrogen) supplemented with 10% (v/v) fatal bovine serum (Invitrogen). […] Thus, the cellular [PtdIns(4,5)P2] was determined from the observed (FB/FG) values using the in vitro calibration curve determined using POPC/POPS/PtdIns(4,5)P2 GUVs.

[6] = test system: NIH 3T3 cells; experiment: Cellular distribution of microinjected sensor in live cells; type: cell-based; conditions: FIG. 6
Experimental: as §4, §5

[7] = Equilibrium SPR binding to other phosphoinositide vesicles; conditions: POPC/POPS/phosphoinositide (77:20:3) vesicles; no significant SPR response signal with injection of 1 μM protein
[8] = POPC/POPS/PtdIns(3,4)P2 (77:20:3) LUVs, read-out: Kd for PtdIns(3,4)P2
[9] = POPC/POPS/PtdIns(3,4,5)P3 (77:20:3) LUVs, read-out: Kd for PtdIns(3,4,5)P3

Molecule: CCCCCCCCCCCCCCCC(=O)OC[C@H](COP(=O)(O)O[C@H]1[C@H](O)[C@@H](O)[C@H](OP(=O)(O)O)[C@@H](OP(=O)(O)O)[C@H]1O)OC(=O)CCCCCCCCCCCCCCC [PtdIns(3,4)P2]
- Kd [1, 8]: 180 nM
- Kd [2, 8]: 190 nM
- Kd [3, 8]: 350 nM
- Kd [4, 8]: 50 nM

Molecule: insulin
- reduction in spatially averaged [PtdIns(4,5)P2]s in the plasma membrane [5]: ~10%

Molecule: CCCCCCCCCCCCCCCC(=O)OC[C@H](COP(=O)(O)O[C@H]1[C@H](O)[C@@H](OP(=O)(O)O)[C@H](OP(=O)(O)O)[C@@H](OP(=O)(O)O)[C@H]1O)OC(=O)CCCCCCCCCCCCCCC [PtdIns(3,4,5)P3, phosphatidylinositol-3,4,5-trisphosphate]
- Kd [1, 9]: 210 nM
- Kd [2, 9]: 200 nM
- Kd [3, 9]: 480 nM
- Kd [4, 9]: 44 nM

B1: DAN-eENTH: eENTH (M10C, C96A, S4W) linked via C10 to 2-dimethylamino-6-acyl-naphthalene (DAN); PtdIns(4,5)P2 sensor (conjugate)
chain: MSTWSLRRQCKNIVHNYSEAEIKVREATSNDPWGPSSSLMSEIADLTYNVVAFSEIMSMIWKRLNDHGKNWRHVYKAMTLMEYLIKTGSERVSQQAKENMYAVQTLKDFQYVDRDGKDQGVNVREKAKQLVALLRDEDRLREERAHALKTKEKLAQTA
modifications: DAN fluorophore on Cys10; Modified ENTH domain of Epsin 1.
notes: eENTH (M10C, C96A, S4W) linked via C10 to 2-dimethylamino-6-acyl-naphthalene (DAN); PtdIns(4,5)P2 sensor
- cellular localization after microinjection [6]: mainly enriched in the plasma membrane
- Kd [7]: > 1000 nM

B2: Wild Type: ENTH domain of epsin 1, amino acids 1-158, SEQ ID NO:1 (protein)
chain: MSTSSLRRQMKNIVHNYSEAEIKVREATSNDPWGPSSSLMSEIADLTYNVVAFSEIMSMIWKRLNDHGKNWRHVYKAMTLMEYLIKTGSERVSQQCKENMYAVQTLKDFQYVDRDGKDQGVNVREKAKQLVALLRDEDRLREERAHALKTKEKLAQTA
modifications: ENTH domain of Epsin 1.
- Kd [7]: > 1000 nM

B3: C96A/S4W (eENTH): engineered ENTH domain of epsin 1 with substitutions M10C, C96A, S4W, SEQ ID NO:2 (protein)
chain: MSTWSLRRQCKNIVHNYSEAEIKVREATSNDPWGPSSSLMSEIADLTYNVVAFSEIMSMIWKRLNDHGKNWRHVYKAMTLMEYLIKTGSERVSQQAKENMYAVQTLKDFQYVDRDGKDQGVNVREKAKQLVALLRDEDRLREERAHALKTKEKLAQTA
modifications: Modified ENTH domain of Epsin 1.
- Kd [7]: > 1000 nM

Reference: US8686115B2, “Compositions and methods for quantitatively monitoring lipids” (The Board of Trustees of the University of Illinois, priority 2009, dated 2014)
